What was measured:
[1] = system: radiation-induced edema and fibrosis in the lung; assay: Mouse model of DEARE-lung: whole thoracic lung irradiation (WTLI) followed by oral genistein suspension; format: in vivo; conditions: WTLI mice
Description: FIG. 1A includes representative images of animal lungs stained with Masson's Trichrome. Images on the left are whole-lung, and images on the right are high magnification (10×). […] Error bars ±SEM.
Animals were treated for two, four, or six weeks.

[2] = system: normal lung tissue (WTLI-irradiated); assay: A549 mouse xenograft model with WTLI: radioprotection of normal lung tissue; format: in vivo, athymic CD1 nu/nu mice; conditions: A549 xenograft mice
Excerpt: FIG. 2A is an image of a mouse in which A549 cells were implanted subcutaneously, followed by treatment with 12.5 Gy of radiotherapy (RT). […] The white box indicates the path of radiation, and the circle indicates the tumor site.
Other nonclinical studies focused on protection of the lungs in the context of cancer radiotherapy. A549 lung cancer cells were implanted subcutaneously in athymic CD1 nu/nu mice. The location of the implant was specific, so that a single dose of WTLI would hit the tumor and the normal lung tissue (FIG. 2A). Mice were then administered a nanoparticulate genistein suspension or vehicle control by daily oral gavage for seven days prior to WTLI and continuing until the end of the study.

[3] = system: therapy-induced pneumonitis and pulmonary fibrosis; assay: Genistein phase 1b/2a trial in NSCLC patients on chemoradiotherapy: toxicity and adverse events; format: in vivo, human
Description: FIGS. 3A and 3B are graphs plotting pulmonary adverse event incidence rates in non-small cell lung cancer (NSCLC) clinical trials.
The drug was added to patients' chemoradiotherapy regimens to reduce the incidence of therapy-induced pneumonitis and pulmonary fibrosis. […] Patients ingested the suspension once daily for one week prior to chemoradiotherapy, and also while on concurrent chemoradiotherapy for a total of six to eight weeks.

SARS-CoV-2 = assay: K18-hACE2 transgenic mouse model of SARS-CoV-2 infection; format: in vivo
[4] = several pharmaceutically acceptable solvents; cited from earlier work
[5] = system: NF-κB, pro-inflammatory cytokines, pro-fibrotic proteins; conditions: cited from earlier work
[6] = system: radiation-induced fibrosis; conditions: rat RiED model; treatment starting two hours after radiation exposure; cited from earlier work
[7] = daily oral gavage from 7 days before WTLI to end of study
[8] = K18-hACE2 Mouse Study 2, oral BID 7 d

## O=c1c(-c2ccc(O)cc2)coc2cc(O)cc(O)c12 [genistein, 5,7-dihydroxy-3-(4-hydroxyphenyl)-4H-chromen-4-one]
[1]; daily from 24 hours after irradiation for two, four or six weeks, vs controls
  immune infiltrate, edema and fibrosis of the lungs (histopathology and wet lung weight): significantly less immune infiltrate, edema, and fibrosis of the lungs
[1]; treatment started 24, 72 or 120 hours (within five days) after radiation
  levels of fibrosis (Masson's Trichrome staining, Ashcroft scoring): reduction in pulmonary fibrosis
[2]; WTLI, vs vehicle
  wet lung weight (indicator of pneumonitis): reduced wet lung weight
[2]; [7]
  congestion and cellular infiltrate, H&E: reduced congestion and minimal cellular infiltrate
  normal lung tissue remodeling (thickening of the septal wall), H&E: marked reduction in normal lung tissue remodeling
[3]; 21 NSCLC patients treated, to date, 9% in historical study
  patients who developed pulmonary fibrosis: none
[3]; NSCLC patients, one year later
  occurrences of pulmonary fibrosis one year later: no occurrences of pulmonary fibrosis
[3]; NSCLC patients, vs historical trial
  severity of dyspnea: less severe
SARS-CoV-2; [8]
  lung pathology: improved lung pathology
  pro-inflammatory cytokine expression: reduced pro-inflammatory cytokine expression
SARS-CoV-2; mouse, in vivo, po
  survival: increase in survival
[4]
  solubility: low to virtually no solubility
[5]
  expression of NF-κB, pro-inflammatory cytokines (IL-1, IL-6, TNFα) and pro-fibrotic proteins (TGFβ, MMP-2, MMP-9, LDH): reduce expression
[6]
  fibrosis: significantly reduced fibrosis

Source: patent US20230143352A1 (Humanetics Corporation, priority 2020, published 2023)
